Laboratory results taken from ChEMBL document CHEMBL1201862, “PubChem BioAssay data set” (2004).
Activity calls are given as the source filed them.

How the values were obtained:
[1] = Luminescence Cell-Based Dose Confirmation HTS to Identify Activators of 5'UTR Stem-Loop Driven Alpha-Synuclein mRNA Translation in H4 Neuroglioblastoma Cells. [Related pubchem assays: 1829 (Project Summary), 1814 (Primary HTS)]; type: functional
[2] = Luminescence Cell-Based Dose Response HTS to Identify Activators of Luciferase Translation or Activity in H4 […] Cells. [Related pubchem assays: 1829 (Project Summary), 1814 (Primary HTS)]; type: functional
[3] = tested on: H4; assay: Luminescence Cell-Based Dose Response HTS to Identify Activators of 5'UTR Stem-Loop Driven Prion Protein mRNA Translation in H4 Neuroglioblastoma Cells. [Related pubchem assays: 1829 (Project Summary), 1814 (Primary HTS)]; type: functional; conditions: Homo sapiens
[4] = cells; type: functional, cell-based
[5] = cells; type: functional, cell-based; remark: listed apart in the source
[6] = tested on: Streptococcus sp. 'group A'; assay: Streptococcus pyogenes SK(-)GAS viability under kanamycin – luminescence, BacTiterGlo, confirmation, counter-screen for streptokinase expression inhibitor project, dose response (AID 1900); type: functional, organism-based
[7] = molecular target: T1, Streptokinase A (Streptococcus pyogenes serotype M1, UniProt P10520); assay: viability-normalized secreted streptokinase activity reduction – plasminogen activation absorbance, OD405, dose response (AID 1914); type: functional, Streptococcus pyogenes M1 GAS;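 also: secreted streptokinase activity via plasminogen activation per viability signal from cell pellet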
T1 sequence (P10520 whole entry): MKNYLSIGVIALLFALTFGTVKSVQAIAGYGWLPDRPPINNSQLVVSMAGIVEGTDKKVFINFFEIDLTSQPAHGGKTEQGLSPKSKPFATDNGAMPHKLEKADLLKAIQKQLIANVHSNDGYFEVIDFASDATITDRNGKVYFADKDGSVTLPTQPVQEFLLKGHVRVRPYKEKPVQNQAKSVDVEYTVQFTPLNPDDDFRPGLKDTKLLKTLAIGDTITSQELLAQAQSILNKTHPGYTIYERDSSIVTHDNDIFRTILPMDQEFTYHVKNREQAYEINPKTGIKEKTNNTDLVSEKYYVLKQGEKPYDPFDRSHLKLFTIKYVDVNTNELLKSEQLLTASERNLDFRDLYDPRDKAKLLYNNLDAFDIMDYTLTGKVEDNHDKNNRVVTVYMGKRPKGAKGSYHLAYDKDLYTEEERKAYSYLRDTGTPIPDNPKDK

[8] = Trypanosoma cruzi growth suppression in host cells – NIH3T3 host cells, beta-gal luminescence, confirmation (AID 2044); type: functional, cell-based;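 also: intracellular parasites grown in NIH/3T3 mouse fibroblasts as host cells; luminescent beta-galactosidase reporter signal from transgenic T. cruzi replicating inside host cells; inhibitors lower the luminescence signal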
[9] = NIH3T3 cell viability loss – ATP luminescence, mouse fibroblasts, counter-screen, dose response (AID 2010); type: functional, cell-based;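 also: cells exposed to compound for about 90 hours before reading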
[10] = tested on: Streptococcus; assay: GAS UMAA2166 growth inhibition – luminescence, BacTiterGlo, counter-screen for streptokinase expression inhibitor project, dose response (AID 1915); type: functional, organism-based;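 also: potency for reduction of bacterial viability or growth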
[11] = bead-based luminescence quenchers, dual-tagged ARNT – biochemical, AlphaScreen, cherry-pick, artefact control for ARNT-TACC3 interaction inhibitor project, dose response (AID 651705); type: functional;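 also: AlphaScreen bead proximity signal that flags compounds interfering with the detection technology; potency reflects signal decrease which marks the compound as an assay artifact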
[12] = molecular target: T2, DNA repair and recombination protein RAD54-like (Homo sapiens, UniProt Q92698); assay: RAD54 Holliday junction migration blockers – biochemical, fluorescence, cherry-picked samples, dose series, confirmation (AID 651657); type: functional
T2 sequence (Q92698 whole entry): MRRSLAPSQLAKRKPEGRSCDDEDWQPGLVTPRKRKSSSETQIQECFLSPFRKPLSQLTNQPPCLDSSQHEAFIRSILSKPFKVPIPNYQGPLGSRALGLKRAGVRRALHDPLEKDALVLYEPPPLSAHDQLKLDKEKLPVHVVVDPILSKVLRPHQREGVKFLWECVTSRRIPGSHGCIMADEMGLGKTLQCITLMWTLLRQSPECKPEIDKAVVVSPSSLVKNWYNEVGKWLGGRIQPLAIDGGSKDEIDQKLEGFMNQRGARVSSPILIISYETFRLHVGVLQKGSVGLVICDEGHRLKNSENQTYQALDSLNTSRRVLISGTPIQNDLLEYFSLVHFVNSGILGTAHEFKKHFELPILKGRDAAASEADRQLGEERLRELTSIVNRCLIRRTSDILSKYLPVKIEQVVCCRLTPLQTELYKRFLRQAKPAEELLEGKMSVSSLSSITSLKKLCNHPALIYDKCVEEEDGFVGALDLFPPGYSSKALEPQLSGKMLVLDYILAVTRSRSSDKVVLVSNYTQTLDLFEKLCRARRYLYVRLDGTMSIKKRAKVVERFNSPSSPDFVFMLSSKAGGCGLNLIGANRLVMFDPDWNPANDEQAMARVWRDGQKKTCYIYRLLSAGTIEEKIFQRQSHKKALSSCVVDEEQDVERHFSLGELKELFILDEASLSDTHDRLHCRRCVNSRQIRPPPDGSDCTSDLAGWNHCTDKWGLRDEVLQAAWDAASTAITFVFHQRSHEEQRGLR

[13] = molecular target: T3, DNA repair protein RAD52 homolog (Homo sapiens, UniProt P43351); type: functional, biochemical
T3 sequence (P43351 whole entry): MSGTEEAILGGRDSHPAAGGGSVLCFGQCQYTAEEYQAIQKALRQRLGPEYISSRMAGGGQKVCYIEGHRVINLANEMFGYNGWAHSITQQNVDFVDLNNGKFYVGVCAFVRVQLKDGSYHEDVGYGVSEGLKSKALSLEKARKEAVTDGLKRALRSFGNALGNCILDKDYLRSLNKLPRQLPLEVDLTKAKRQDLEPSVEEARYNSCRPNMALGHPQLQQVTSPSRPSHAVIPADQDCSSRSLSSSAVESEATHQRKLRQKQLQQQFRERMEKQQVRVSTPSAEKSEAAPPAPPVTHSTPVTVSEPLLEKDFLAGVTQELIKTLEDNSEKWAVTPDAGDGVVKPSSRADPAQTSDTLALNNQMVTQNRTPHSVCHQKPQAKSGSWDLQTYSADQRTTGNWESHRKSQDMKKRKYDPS

[14] = viability of PTEN-deleted HCT116 cells – cell-based, HCT116 PTEN knockout, dose response (AID 1047); type: functional;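 also: HCT116 colon tumor cells with PTEN knocked out; cells exposed to compound for 60 hours before readout; potency for loss of cell viability measured by luminescence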
[15] = molecular target: T4, Mannose-6-phosphate isomerase (Homo sapiens, UniProt P34949); assay: MPI inhibition at elevated mannose 6-phosphate – biochemical, fluorescence intensity, high mannose 6-phosphate, primary screen (AID 1220)
T4 sequence (P34949 whole entry): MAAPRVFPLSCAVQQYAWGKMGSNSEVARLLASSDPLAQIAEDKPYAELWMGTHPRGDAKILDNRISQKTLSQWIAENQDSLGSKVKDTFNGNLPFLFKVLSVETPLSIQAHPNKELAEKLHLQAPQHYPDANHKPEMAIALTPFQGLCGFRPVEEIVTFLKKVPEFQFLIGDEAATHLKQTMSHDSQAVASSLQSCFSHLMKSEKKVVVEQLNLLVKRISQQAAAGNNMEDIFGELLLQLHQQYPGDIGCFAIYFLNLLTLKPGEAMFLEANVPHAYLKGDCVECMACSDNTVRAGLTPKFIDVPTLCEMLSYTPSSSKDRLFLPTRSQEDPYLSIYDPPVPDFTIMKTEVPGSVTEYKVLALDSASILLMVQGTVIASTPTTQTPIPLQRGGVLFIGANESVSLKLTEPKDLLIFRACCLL

[16] = molecular target: T5, Calpain-2 catalytic subunit (Sus scrofa, UniProt P43367); assay: m-calpain protease blockers, concentration series – biochemical, fluorogenic peptide substrate, dose response (AID 1420); type: functional
T5 sequence (P43367 whole entry): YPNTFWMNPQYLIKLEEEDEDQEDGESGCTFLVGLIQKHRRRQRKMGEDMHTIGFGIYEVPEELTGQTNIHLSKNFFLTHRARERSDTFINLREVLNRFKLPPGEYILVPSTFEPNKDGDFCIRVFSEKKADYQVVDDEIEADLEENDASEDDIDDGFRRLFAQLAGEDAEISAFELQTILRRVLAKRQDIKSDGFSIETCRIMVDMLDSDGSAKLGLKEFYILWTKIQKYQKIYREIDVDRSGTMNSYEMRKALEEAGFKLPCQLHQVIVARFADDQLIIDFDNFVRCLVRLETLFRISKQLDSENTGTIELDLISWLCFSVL

[17] = molecular target: T6, Replicative DNA helicase DnaB (Mycobacterium tuberculosis, UniProt P9WMR3); assay: DnaB intein splicing inhibitors, dose response, biochemical, cell-free fluorescence (AID 449749); type: functional
T6 sequence (P9WMR3 whole entry): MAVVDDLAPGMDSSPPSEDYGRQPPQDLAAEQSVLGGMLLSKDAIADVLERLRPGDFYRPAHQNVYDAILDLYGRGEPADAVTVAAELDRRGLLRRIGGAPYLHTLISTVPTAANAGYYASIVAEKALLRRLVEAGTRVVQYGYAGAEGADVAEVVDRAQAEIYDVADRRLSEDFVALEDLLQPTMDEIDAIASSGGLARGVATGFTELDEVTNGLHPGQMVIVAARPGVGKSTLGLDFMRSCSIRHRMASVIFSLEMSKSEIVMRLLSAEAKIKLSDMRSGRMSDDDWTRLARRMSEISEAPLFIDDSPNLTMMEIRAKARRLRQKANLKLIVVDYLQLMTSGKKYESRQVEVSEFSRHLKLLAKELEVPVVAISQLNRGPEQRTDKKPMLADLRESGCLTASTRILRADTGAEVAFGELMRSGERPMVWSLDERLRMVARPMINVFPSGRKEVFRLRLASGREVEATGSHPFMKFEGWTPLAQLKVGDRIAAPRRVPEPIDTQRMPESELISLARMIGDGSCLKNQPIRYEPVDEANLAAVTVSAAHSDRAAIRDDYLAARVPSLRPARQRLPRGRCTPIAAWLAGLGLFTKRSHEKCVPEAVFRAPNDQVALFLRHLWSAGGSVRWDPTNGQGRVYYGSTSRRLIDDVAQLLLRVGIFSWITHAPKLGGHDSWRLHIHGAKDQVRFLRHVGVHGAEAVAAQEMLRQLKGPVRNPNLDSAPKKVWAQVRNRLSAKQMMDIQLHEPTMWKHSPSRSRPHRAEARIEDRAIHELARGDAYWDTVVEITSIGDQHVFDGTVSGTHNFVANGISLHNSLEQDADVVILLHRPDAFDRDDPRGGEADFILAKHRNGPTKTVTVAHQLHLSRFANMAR

[18] = molecular target: T7, Protein RecA (Mycobacterium tuberculosis, UniProt P9WHJ3); assay: Fluorescence Cell-Free Homogeneous Dose Retest to Identify Inhibitors of RecA-Intein Splicing Activity. [Related pubchem assays (depositor defined):AID2097, AID2223, AID489010, AID492950]; type: functional
T7 sequence (P9WHJ3 whole entry): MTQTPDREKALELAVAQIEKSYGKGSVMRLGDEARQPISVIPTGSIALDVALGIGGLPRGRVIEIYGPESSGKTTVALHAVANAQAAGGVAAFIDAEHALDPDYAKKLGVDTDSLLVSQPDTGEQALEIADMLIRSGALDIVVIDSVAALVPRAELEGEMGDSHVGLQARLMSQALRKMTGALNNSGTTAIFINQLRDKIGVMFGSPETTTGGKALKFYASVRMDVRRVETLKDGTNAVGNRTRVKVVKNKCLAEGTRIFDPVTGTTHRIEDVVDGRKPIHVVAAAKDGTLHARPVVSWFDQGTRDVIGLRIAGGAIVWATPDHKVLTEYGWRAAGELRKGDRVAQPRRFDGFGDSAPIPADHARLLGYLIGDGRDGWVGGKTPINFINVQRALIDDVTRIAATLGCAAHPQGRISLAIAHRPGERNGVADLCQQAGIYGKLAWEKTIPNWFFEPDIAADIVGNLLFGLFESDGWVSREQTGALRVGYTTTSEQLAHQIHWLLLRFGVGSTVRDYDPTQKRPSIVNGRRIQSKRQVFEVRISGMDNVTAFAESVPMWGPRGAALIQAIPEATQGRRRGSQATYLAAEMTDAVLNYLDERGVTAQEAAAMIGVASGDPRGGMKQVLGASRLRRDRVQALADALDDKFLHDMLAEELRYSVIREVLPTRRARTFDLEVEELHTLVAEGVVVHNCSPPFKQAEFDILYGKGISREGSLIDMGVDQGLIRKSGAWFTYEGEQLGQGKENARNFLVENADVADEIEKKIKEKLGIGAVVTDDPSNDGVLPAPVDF

c1ccc(CCN2CN=C(Nc3nc4ccccc4o3)NC2)cc1
EC50 [1]: 14.3 µM (active)
EC50 [2]: 8.35 µM (active)
EC50 [3]: 17.3 µM (active)
IC50 [4]: > 29.9 µM (inactive)
EC50 [5]: > 29.9 µM (inactive)

CSCc1cc(N(C)c2ccccc2)nc(-c2ccccn2)n1
EC50 [6]: 6.57 µM (active)
EC50 [7]: > 150 µM (not active)
EC50 [8]: 1.89 µM (active)
EC50 [9]: > 60 µM (not active)
EC50 [10]: 25 µM (active)
AC50 [11]: 108 µM (active)

CCN(CC)CCCNC(=O)c1cc2c(O)nc3ccc(C)cc3c2s1
AC50 [12]: 62.4 µM (active)
AC50 [13]: 21.5 µM (active)

COC(=O)c1cn(NC(=O)c2cc(OC)c(OC)c(OC)c2)c(=O)c2ccccc12
EC50 [14]: 41.4 µM (active)

COc1ccc(Nc2nc3nc(O)cc(O)c3s2)cc1
IC50 [15]: > 50 µM (not active)

Cc1sc(NC(=S)NC(=O)c2cccs2)nc1-c1ccc(C(C)C)cc1
IC50 [16]: 26 µM (not active)

Oc1ncc(NCCc2ccccc2)c(O)n1
IC50 [4]: > 29.9 µM (inactive)
EC50 [5]: > 29.9 µM (inactive)

O=C(CN(C(=O)CSc1nnc(COc2ccccc2)o1)c1ccc(F)cc1)NC1CCCCC1
IC50 [16]: 3.19 µM (not active)

COc1ccc(-c2cnc3c(NC(C)=O)cc(-c4cccc(C(=O)NCCN(C)C)c4)cn23)cc1OC
AC50 [12]: 15.2 µM (active)
AC50 [13]: 2.33 µM (active)

Cc1ccsc1-c1cc2nc(NCCCN(C)C)n(C)c(=O)c2s1
AC50 [12]: 47 µM (active)
AC50 [13]: 9.79 µM (active)

Cn1c(NCCN2CCCC2)nc2cc(-c3ccccc3)sc2c1=O
AC50 [12]: 39.3 µM (active)
AC50 [13]: 16.2 µM (active)

C/C(CC(=O)N1CCN(C=O)CC1)=N\NC(=O)c1cc2ccccc2cc1O
IC50 [15]: 42.5 µM (active)

Nc1ccc2ncccc2c1
IC50 [15]: > 50 µM (not active)
AC50 [17]: 6.42 µM (active)
EC50 [18]: 5.95 µM (active)
